Results as given in article PMC8400311, “Novel Anti-Melanogenic Compounds, (Z)-5-(Substituted Benzylidene)-4-thioxothiazolidin-2-one Derivatives: In Vitro and In Silico Insights” (Molecules, 2021).
Where “and” joins values, the source holds several entries; their conditions need not be identical. Equal values may be shown once.

Key:
[1] = target: mushroom tyrosinase; assay: Mushroom tyrosinase inhibition assay; format: biochemical; conditions: for IC50: L-tyrosine as substrate, mean of 3 experiments, read-out: IC50 against mushroom tyrosinase; for fold lower tyrosinase inhibitory activity than 2b: ratio of IC50 values vs 2b
Description: The absorbances of dopachrome produced in each well during incubation was measured at 450 nm using a microplate reader (VersaMax™, Molecular Devices, Sunnyvale, CA, USA). […] All experiments were independently conducted 3 times. To calculate the % inhibition of tyrosinase activity, the following formula was used: % inhibition = […], where A means the optical density of the test samples and B means the optical density of the non-treated control. To calculate the concentration necessary for 50% inhibition of enzyme activity (IC50), the % tyrosinase inhibition of each compound was obtained at 3 or more different concentrations. IC50 values were calculated by constructing a linear regression curve showing the concentration of the (Z)-BTTZ compounds on the x-axis and percentage inhibition on the y-axis. To obtain a negative control dimethyl sulfoxide (DMSO) was added instead of the (Z)-BTTZ compounds.

[2] = test system: cellular tyrosinase in B16F10 melanoma cells; assay: Cellular tyrosinase activity assay (L-DOPA oxidation) in α-MSH-stimulated cells; format: cell-based, murine; conditions: for reduction in cellular tyrosinase activity: 48 h
Description: The inhibitory activities of compounds 2b and 2f against cellular tyrosinase were assessed using α-MSH-stimulated melanoma cells. […] The inhibitory effects on tyrosinase activity were evaluated by measuring optical densities.
Tyrosinase activities were assessed by determining the L-DOPA oxidation rate, as described previously with minor modifications. […] Cells were then rinsed twice with PBS, exposed to 100 µL of lysis buffer (90 µL of 50 mM phosphate buffer pH 6.8; 5 µL of 2 mM PMSF; 5 µL of 20% Triton), and frozen at −80 °C for 30 min. After defrosting, lysates were centrifuged at 12,000 g for 30 min at 4 °C, and supernatants (80 µL) were mixed with 10 mM L-DOPA (20 µL) in a 96-well plate. Absorbances were measured at 490 nm at 37 °C every 10 min for 1 h using a microplate reader (VersaMax^TM, Molecular Devices, Sunnyvale, CA, USA). All experiments were carried out three times in triplicate.
Bars represent standard errors.

[3] = test system: B16F10 melanoma cells; assay: Cell viability, EZ-Cytox assay; format: cell-based, murine; conditions: concentrations ≤25 µM; 24 and 48 h for 2b and 2f, respectively
Description: Before examining the inhibitory effects of compounds 2b and 2f on tyrosinase and melanin biosynthesis, we investigated their cytotoxic effects using murine B16F10 melanoma cells. The cells were treated with different concentrations of 2b or 2f (0, 1, 2.5, 5, 10, or 25 µM) for 24 and 48 h (Figure 7), respectively, and the cell viabilities were assessed using the EZ-Cytox assay.
Cell viability assays of compounds 2b and 2f were performed using B16F10 melanoma cells and the EZ-Cytox assay (EZ-3000, DoGenBio, Seoul, Korea), as previously described. Briefly, cells were seeded at a density of 1 × 10^4 cells/well in a 96-well plate for 24 h, and then were exposed to different concentrations (0, 1, 2.5, 5, 10, or 25 µM) of 2b or 2f and incubated at 37 °C for 24 and 48 h, respectively. EZ-Cytox solution (10 µL) was then added to each well and cells were incubated at 37 °C for 2 h. Absorbances were measured at 450 nm using a microplate reader (VersaMax^TM, Molecular Devices, Sunnyvale, CA, USA). Each assay was performed in triplicate.
Figure 7 The cytotoxic effects of compounds 2b (a) and 2f (b) on B16F10 melanoma cells at concentrations of 1, 2.5, 5, 10, or 25 µM. Cell viabilities were determined using the EZ-Cytox assay and are expressed as percentages versus non-treated controls. Bars present standard errors.

[4] = test system: B16F10 melanoma cells; assay: Melanin content assay in α-MSH-stimulated cells; format: cell-based, murine; conditions: for reduction in melanin content: 48 h
Description: Melanin content assays were used to evaluate the inhibitory effects of compounds 2b and 2f on α-MSH-stimulated melanogenesis. […] The inhibitory activities on α-MSH-stimulated melanogenesis were determined by measuring melanin optical densities. The anti-melanogenesis activities of compounds 2b and 2f were assessed using a standard melanin content assay with minor modifications. Briefly, B16F10 cells were seeded at a density of 5 × 10^4/well in a 24-well plate and allowed to adhere to wells in a DMEM solution containing penicillin/streptomycin (100 IU/100 µg/mL) and 10% heat-inactivated FBS in a standard humidified 5% CO2 atmosphere at 37 °C. […] Cells were then rinsed twice with PBS and lysed in 200 µL of 1N NaOH containing 10% dimethyl sulfoxide (DMSO) for 1 h at 60 °C. Lysates were transferred to the wells of a 96-well plate, and melanin absorbances were measured at 405 nm using a microplate reader (VersaMax^TM, Molecular Devices, Sunnyvale, CA, USA). All experiments were conducted three times in triplicate. […] Bars represent standard errors.

[5] = test system: mushroom tyrosinase; assay: Kinetic study of mushroom tyrosinase inhibition (Lineweaver–Burk plots); format: biochemical; conditions: L-tyrosine 0.5–8.0 mM
Description: To investigate the modes of action of compounds 2b and 2f, a kinetic study was performed using mushroom tyrosinase and different concentrations of L-tyrosine as a substrate in the presence of 2b or 2f. As depicted in Figure 4, inhibitory mechanisms were determined using Lineweaver–Burk plot analysis. The Lineweaver–Burk plot patterns of 2b and 2f were similar. The plots obtained at different concentrations of 2b and 2f merged at single points on the y-axis. Regardless of the concentration, the Vmax values of 2b and 2f were independent of concentration, whereas their KM values increased concentration-dependently.
Compounds 2b or 2f (10 µL, final concentrations: 0, 0.05, 0.1, or 0.2 µM for 2b and 0, 2, 4, or 8 µM for 2f) and mushroom tyrosinase solution (20 µL, 150 units) were added to the wells of a 96-well plate containing aqueous solutions (170 µL) containing L-tyrosine at 0.5, 1.0, 2.0, 4.0, or 8.0 mM (final concentrations), distilled water, and potassium phosphate buffer (final concentration: 14.7 mM, pH 6.5), in the ratio 10:9:10. Initial rates of dopachrome formation in reaction mixtures were calculated by measuring increases in absorbances at 492 nm (ΔOD492/min) using a microplate reader (VersaMax^TM, Molecular Devices, Sunnyvale, CA, USA). […] Modes of tyrosinase inhibition were determined using points of convergence. […]

[6] = 25 µM compound, α-MSH 0.5 µM, 48 h (α-MSH alone 1.61-fold)

O=C1NC(=S)/C(=C/c2ccc(O)cc2)S1 [Compound 2a, (Z)-5-(4-Hydroxybenzylidene)-4-thioxothiazolidin-2-one]
IC50 [1]: 28.1 ± 1.16 µM | fold lower tyrosinase inhibitory activity than 2b [1]: 60 fold

O=C1NC(=S)/C(=C/c2ccc(O)cc2O)S1 [Compound 2b, (Z)-5-(2,4-Dihydroxybenzylidene)-4-thioxothiazolidin-2-one]
reduction in cellular tyrosinase activity ([2]; 5 µM compound, α-MSH 0.5 µM): 16% | cellular tyrosinase activity versus non-treated cells ([2]; 5 µM compound, α-MSH 0.5 µM, 48 h (α-MSH alone 2.19-fold)): 1.85 fold | reduction in cellular tyrosinase activity ([2]; 10 µM compound, α-MSH 0.5 µM): 32% | cellular tyrosinase activity versus non-treated cells ([2]; 10 µM compound, α-MSH 0.5 µM, 48 h (α-MSH alone 2.19-fold)): 1.48 fold | reduction in cellular tyrosinase activity ([2]; 25 µM compound, α-MSH 0.5 µM): 45% | cellular tyrosinase activity versus non-treated cells ([2]; 25 µM compound, α-MSH 0.5 µM, 48 h (α-MSH alone 2.19-fold)): 1.20 fold | cytotoxic effect on B16F10 cells [3]: Neither 2b nor 2f exhibited any significant cytotoxic effect | reduction in melanin content ([4]; 5 µM compound, α-MSH 0.5 µM): 26% | melanin level versus non-treated controls ([4]; 5 µM compound, α-MSH 0.5 µM, 48 h (α-MSH alone 1.61-fold)): 1.19 fold | reduction in melanin content ([4]; 10 µM compound, α-MSH 0.5 µM): 44% | melanin level versus non-treated controls ([4]; 10 µM compound, α-MSH 0.5 µM, 48 h (α-MSH alone 1.61-fold)): 0.91 fold | reduction in melanin content ([4]; 25 µM compound, α-MSH 0.5 µM): 47% | melanin level versus non-treated controls [4, 6]: 0.85 fold | fold higher inhibitory potency than kojic acid (mushroom tyrosinase) ([1]; ratio of IC50 values vs kojic acid): 141 fold and > 100 fold | mode of mushroom tyrosinase inhibition [5]: competitive

O=C1NC(=S)/C(=C/c2ccc(O)c(O)c2)S1 [Compound 2c, (Z)-5-(3,4-Dihydroxybenzylidene)-4-thioxothiazolidin-2-one]
IC50 [1]: 47.4 ± 2.18 µM

COc1cc(/C=C2\SC(=O)NC2=S)ccc1O [Compound 2d, (Z)-5-(4-Hydroxy-3-methoxybenzylidene)-4-thioxothiazolidin-2-one]
IC50 [1]: 70.8 ± 1 µM | fold lower mushroom tyrosinase inhibitory activity than compound 2f ([1]; ratio of IC50 values vs 2f): 4.6 fold

CCOc1cc(/C=C2\SC(=O)NC2=S)ccc1O [Compound 2e, (Z)-5-(3-Ethoxy-4-hydroxybenzylidene)-4-thioxothiazolidin-2-one]
IC50 [1]: 92.81 ± 0.89 µM

COc1ccc(/C=C2\SC(=O)NC2=S)cc1O [Compound 2f, (Z)-5-(3-Hydroxy-4-methoxybenzylidene)-4-thioxothiazolidin-2-one]
reduction in cellular tyrosinase activity ([2]; 5 µM compound, α-MSH 1.0 µM): 23% | cellular tyrosinase activity versus non-treated cells ([2]; 5 µM compound, α-MSH 1.0 µM, 48 h (α-MSH alone 2.84-fold)): 2.20 fold | reduction in cellular tyrosinase activity ([2]; 10 µM compound, α-MSH 1.0 µM): 46% | cellular tyrosinase activity versus non-treated cells ([2]; 10 µM compound, α-MSH 1.0 µM, 48 h (α-MSH alone 2.84-fold)): 1.54 fold | reduction in cellular tyrosinase activity ([2]; 25 µM compound, α-MSH 1.0 µM): 59% | cellular tyrosinase activity versus non-treated cells ([2]; 25 µM compound, α-MSH 1.0 µM, 48 h (α-MSH alone 2.84-fold)): 1.18 fold | cytotoxic effect on B16F10 cells [3]: Neither 2b nor 2f exhibited any significant cytotoxic effect | reduction in melanin content ([4]; 5 µM compound, α-MSH 1.0 µM): 14% | melanin level versus non-treated controls ([4]; 5 µM compound, α-MSH 1.0 µM, 48 h (α-MSH alone 3.51-fold)): 3.03 fold | reduction in melanin content ([4]; 10 µM compound, α-MSH 1.0 µM): 46% | melanin level versus non-treated controls ([4]; 10 µM compound, α-MSH 1.0 µM, 48 h (α-MSH alone 3.51-fold)): 1.88 fold | reduction in melanin content ([4]; 25 µM compound, α-MSH 1.0 µM): 60% | melanin level versus non-treated controls ([4]; 25 µM compound, α-MSH 1.0 µM, 48 h (α-MSH alone 3.51-fold)): 1.42 fold | IC50 [1]: 15.2 ± 1.68 µM | mode of mushroom tyrosinase inhibition [5]: competitive

COc1cc(/C=C2\SC(=O)NC2=S)cc(OC)c1O [Compound 2g, (Z)-5-(4-Hydroxy-3,5-dimethoxybenzylidene)-4-thioxothiazolidin-2-one]
IC50 [1]: 82.4 ± 1.26 µM

O=C1NC(=S)/C(=C/c2ccccc2O)S1 [Compound 2h, (Z)-5-(2-Hydroxybenzylidene)-4-thioxothiazolidin-2-one]
IC50 [1]: 147.6 ± 0.96 µM | fold lower tyrosinase inhibitory activity than 2b [1]: 314 fold

O=C1NC(=S)/C(=C/c2ccc(O)c(Br)c2)S1 [Compound 2i, (Z)-5-(3-Bromo-4-hydroxybenzylidene)-4-thioxothiazolidin-2-one]
IC50 [1]: 26.3 ± 4.1 µM

COc1ccc(/C=C2\SC(=O)NC2=S)cc1 [Compound 2j, (Z)-5-(4-Methoxybenzylidene)-4-thioxothiazolidin-2-one]
IC50 [1]: 30.8 ± 1.41 µM

COc1ccc(/C=C2\SC(=O)NC2=S)c(OC)c1 [Compound 2k, (Z)-5-(2,4-Dimethoxybenzylidene)-4-thioxothiazolidin-2-one]
IC50 [1]: 126.4 ± 0.46 µM

COc1ccc(/C=C2\SC(=O)NC2=S)cc1OC [Compound 2l, (Z)-5-(3,4-Dimethoxybenzylidene)-4-thioxothiazolidin-2-one]
IC50 [1]: 23.3 ± 0.28 µM

O=c1cc(CO)occ1O [Kojic acid, reference compound]
reduction in cellular tyrosinase activity ([2]; 25 µM compound, α-MSH 0.5 µM): 14% | reduction in cellular tyrosinase activity ([2]; 25 µM compound, α-MSH 1.0 µM): 33% | reduction in melanin content ([4]; 25 µM compound, α-MSH 0.5 µM): 14% | melanin level versus non-treated controls [4, 6]: 1.38 fold | reduction in melanin content ([4]; 25 µM compound, α-MSH 1.0 µM): 45%
